Experimental data from patent publication US5654296A, “Condensed heterocyclic compounds, their production and use” (priority 1994, dated 1997).
Structures can show the parent of a compound that is named as a salt.

Experiments:
Format in all cases: biochemical
serotonine (5-HT) uptake = test: Activity to inhibit serotonine (5-HT) uptake; details: rat whole brain; 3H-5-HT 10 nM; 37° C.; pH 7.4; read-out: 5-HT uptake inhibitory activity (IC50 μM)
Method: (a) Activity to inhibit serotonine (5-HT) uptake
(§1) The experiment was performed in accordance with the method of Hyttel et al. [Psychopharmacology 60, 13, 1978]. The whole brain of a rat was homogenized in 40 volumes of ice-cooled 0.32M sucrose solution containing 10 μM pargyline and, then, centrifuged (600×G) for 10 minutes. The supernatant was centrifuged (2500×G) for 55 minutes to provide a pellet. This pellet was suspended in Krebs-Ringer-phosphate buffer (pH 7.4; 122 mM NaCl, 4.82 mM KCl, 0.972 mM CaCl2, 1.21 mM MgSO4, 12.7 mM Na2 HPO4, 2.97 mM NaH2 PO4, 0.162 mM EDTA sodium, 10 mM glucose, 1.14 mM ascorbic acid) saturated with a mixed gas (95% O and 5% CO2). To 900 μl of this suspention was added a solution of the test drug (10 μl) in DMSO and the mixture was incubated at 37° C. for 5 minutes. Then, 100 μl of ^3 H-5-HT (final concentration 10 nM) was added and the mixture was further incubated at 37° C. for 5 minutes. This reaction mixture was filtered under suction using a GF/B filter and the filter was washed with 4 ml of the above-mentioned buffer. The radioactivity on the filter was measured by the liquid scintillation method.
The amount of the drug which caused a 50% decrease in 5-HT uptake is shown as 50% inhibitory activity (IC50) in Table 42.

[1] = tested on: norepinephrine (NE) uptake; test: Activity to inhibit norepinephrine (NE) uptake; details: rat cerebral cortex; 3H-NE; read-out: NE uptake inhibitory activity (IC50 μM)
Method: as §1
(b) Activity to inhibit norepinephrine (NE) uptake
Using the rat cerebral cortex and, as the substrate, ^3 H-NE, an experiment was performed by otherwise the same procedure as described for 5-HT.

[2] = tested on: 45Ca2+ uptake (veratrine-stimulated, rat cerebral cortex crude synaptosome fraction); test: 45Ca2+ uptake inhibition experiment; details: 30 μM veratrine, 37° C., 10 minutes, read-out: 45Ca2+ uptake inhibitory activity (IC50 μM)
Method: The rat cerebral cortex was homogenized in 10 volumes of ice-cooled 0.32M sucrose solution to prepare a crude synaptosome fraction (100×G, 10 min., 12000×G, 20 min.). […] To 900 μl of the homogenate was added a DMSO solution of the test drug (10 μl). The mixture was incubated at 37° C. for 10 minutes, followed by addition of 100 μl of a veratrine solution (containing 0.18 uci ^45 Ca^2+) at a final veratrine concentration of 30 μM. The mixture was incubated at 37° C. for 10 minutes, quenched with 4 ml of ice-cooled EGTA solution (120 mM sodium chloride, 5 mM potassium chloride, 5 mM EGTA, pH=7.5) and suction-filtered using a GF/B filter. The filter was washed twice with 4 ml each of a washing solution (132 mM sodium chloride, 5 mM potassium chloride, 1.3 mM magnesium chloride, 1.2 mM calcium, chloride, 20 mM Tris base, pH 7.5) and the radioactivity of […] was measured by the liquid scintillation method.
The ^45 Ca^2+ uptake inhibition rate was calculated by means of the following equation. [formula] A: The ^45 Ca^2+ uptake after 10 minutes' stimulation with 30 μM veratrine in the presence of the test drug
B: The ^45 Ca^2+ uptake in the absence of veratrine and in the presence of the test drug
C: The ^45 Ca^2+ uptake after 10 minutes' stimulation with 30 μM veratrine in the absence of the test drug
D: The ^45 Ca^2+ uptake in the absence of the test drug and in the absence of veratrine

With `COc1cccc(NC(=O)N2Cc3ccccc3C(CCN3CCN(c4ccc(F)cc4)CC3)(c3ccccc3)C2)c1` (stereo not drawn) [IV-20, 1,2,3,4-Tetrahydro-4-{2-[4-(p-fluorophenyl)piperazin-1-yl]ethyl}-2-(3-methoxyphenyl)carbamoyl-4-phenylisoquinoline hydrochloride] the IC50 (serotonine (5-HT) uptake) was 0.03 µM, the IC50 [1] was 0.12 µM and the IC50 [2] was 0.17 µM.
